The subject of experiment [1] is 5'ATP aptamer-bridge (DNA, aptamer) CTAGCGAGCGAACTTTACCTGGGGGAGTATTGCGGAGGAAGGT
Description: CD of origami-AuNR probe, competitive hybridization, complementary strand length varied. The conditions noted are these: 5 mM Mg2+, PBS, room temperature, overnight, 1 mM ATP, displaced 5'ATPCS9-12, R^2 0.96.

Experiment [2] shares this test system. The experiment can be described thus: CD of origami-AuNR probe, competitive hybridization, ATP concentration varied. The conditions noted are these: 5 mM Mg2+, PBS, room temperature, overnight, ATP 1 μM to 1 mM, displaced 5'ATPCS9 (n = 9).
The subject of experiment [3] is 5'glucose aptamer-bridge (DNA, aptamer) CTAGCGAGCGAACTTTACGACCGTGTGTGTTGCTCTGTAACAGTGTCCATTGTCGT
The experiment can be described thus: CD of origami-AuNR probe, competitive hybridization, complementary strand length varied. The conditions noted are these: 5 mM Mg2+, PBS, room temperature, overnight, 100 mM glucose, displaced 5'gluCS8-12, R^2 0.99.

Experiment [4] shares this test system. Description: CD of origami-AuNR probe, single concentration. The conditions noted are these: 5 mM Mg2+, PBS, room temperature, overnight, up to 100 mM fructose, displaced 5' strand n = 10.
The test system of experiment [5] is 5'ATP aptamer-bridge (DNA, aptamer) CTAGCGAGCGAACTTTACCTGGGGGAGTATTGCGGAGGAAGGT
The experiment can be described thus: CD of origami-AuNR probe, single concentration. The conditions noted are these: 5 mM Mg2+, PBS, room temperature, overnight, up to 1 mM.

Take `Nc1ncnc2c1ncn2[C@@H]1O[C@H](COP(=O)(O)OP(=O)(O)OP(=O)(O)O)[C@@H](O)[C@H]1O`: the “KD2^ATP” value was determined as 5.71 ± 0.865 µM in experiment [1] and 4.54 ± 0.580 µM in experiment [2].
Consider `OC[C@H]1OC(O)[C@H](O)[C@@H](O)[C@@H]1O` (stereo partly drawn), for which the “KD2^glu” value in experiment [3] came to 5.57 ± 0.436 mM.
Consider `OCC1(O)OC[C@@H](O)[C@@H](O)[C@@H]1O` (stereo partly drawn), for which, in experiment [4], the binding result is “no”.
Regarding `Nc1nc2c(ncn2[C@@H]2O[C@H](COP(=O)(O)OP(=O)(O)OP(=O)(O)O)[C@@H](O)[C@H]2O)c(=O)[nH]1`, in experiment [5] (displaced 5'ATPCS9, CD change 3.6% (ATP 53.7%)), the binding result was “no”.
In the case of `Nc1ccn([C@@H]2O[C@H](COP(=O)(O)OP(=O)(O)OP(=O)(O)O)[C@@H](O)[C@H]2O)c(=O)n1`, in experiment [5] (displaced 5'ATPCS9, CD change 2.1% (ATP 53.7%)), the binding entry is on record as “no”.

Source of the values: article PMC8908738 (2022).
